Consider six compounds from patent US20250084096A1, “TERT-BUTYL (S)-2-(4-(PHENYL)-6H-THIENO[3, 2-F][1, 2, 4]TRIAZOLO[4, 3-A] [1,4]DIAZEPIN-6-YL) ACETATE DERIVATIVES AND RELATED COMPOUNDS AS BROMODOMAIN BRD4 INHIBITORS FOR TREATING CANCER” (Genentech, Inc., priority 2018, published 2025).

The target of assay [1] is BRD4_BD1 bromodomain (Homo sapiens (Human), UniProt O60885). Put plainly: BRD4 BD1 biochemical binding assay (TR-FRET). The following applies: displacement of biotinylated ligand Compound C. As for the experimental part:
(§1) The following assay was used to measure the IC50 for the test compounds ability to bind to the BRD4_BD1 and BRD4_BD2 bromodomains.
(§2) DMSO was backfilled to a final volume of 30 nL as required. […] 1× Assay Buffer was dispensed (5 μL per well) into Minimum Signal control wells. 5 μL of Solution A-3× was dispensed into test wells and Maximum Signal control wells (containing DMSO instead of test compound). Samples were incubated 10 minutes at room temperature. 5 μL of Solution B-3x was dispensed into all wells. Samples were incubated incubate for 10 minutes at room temperature. 5 μL of Solution C-3x was dispensed into all wells. Samples were incubated 40 minutes at room temperature. Plates were read using an Envision (Perkin Elmer) with the following settings: Detection—LANCE Dual Laser 50/200. […] Percentage inhibition was calculated relative to the Minimum Signal control and Maximum Signal control wells. IC50 values were derived by four parameter curve fitting using the Robust method.
Background: In TR-FRET formats the signal depends on donor and acceptor labels being close together.

The target of assay [2] is BRD4_BD2 bromodomain (Homo sapiens (Human), UniProt O60885). As to the kind of experiment: BRD4 BD2 biochemical binding assay (TR-FRET). The settings on record: displacement of biotinylated ligand Compound C. As for the experimental part: as §1, §2
Assay [3] addresses T1, BRD4 (Homo sapiens (Human), UniProt O60885). Put plainly: BRD4 degradation assay in PC3-Steap1 cells. The format is cell-based. The settings on record: for Dmax: complete loss = −100%, read-out: Sinf (maximum degradation, percent change in protein level). As for the experimental part:
2 μL of each sample from the serial dilution was transferred to 98 μL of assay media as an intermediate dilution. 5 μL of intermediate dilution was added to 45 μL of cell plate. Columns 1, 2, 23 and 24 were treated with only 0.2% w/v final concentration of DMSO for data normalization as “neutral controls”. After compound treatment, cell plates were stored in a 37° C. incubator for 4 hours.
Cell plate was incubated at room temperature for 20 minutes. Well contents were aspirated and washed with 100 μL/well PBS 3 times. 50 μL/well of PBS containing 0.5% w/v bovine serum albumen, 0.5% w/v Triton X-100 (Antibody Dilution Buffer) was added to each well. Samples were incubated for 30 minutes. Well contents were aspirated and washed 3 times with 100 μL/well of PBS. PBS was aspirated from the wells.
25 μL per well of BRD4 antibody diluted in buffer was added and incubated overnight at 4° C. On day-3 samples were washed 3 times with 100 μL/well of PBS. […] Samples were incubated for 2 hours at room temperature. Samples were washed 3 times with 100 μL PBS.
(§3) Quantitative fluorescence imaging of BRD4 was carried out using an Opera Phenix High-Content Screening System. […] Hoechst channel was used to identify nuclear region. […] Data analysis was carried out using Genedata Screener, with DMSO and no primary antibody control treated samples being used to define the 0% and 100% changes in BRD4. The dose-response log(inhibitor) vs. response was used to define the inflexion point of curve (IC50) and the plateau of the maximal effect. The Sit value reports degradation as percent change in protein level, so complete loss of the protein target is −100%. Sinf is the maximum degradation achieved, obtained by determining the bottom of a dose-response (where the S-shaped curve levels out).

The target of assay [4] is T1, BRD4. Put plainly: BRD4 degradation assay in EoL-1 cells. The class given is cell-based. As for the experimental part:
2 μL of each sample from the serial dilution was transferred to 98 μL of assay media as an intermediate dilution. 5 μL of each well of the intermediate dilution was added to 45 μL of cell plate. Columns 1, 2, 23 and 24 were treated with only 0.2% final concentration of DMSO for data normalization as “neutral controls”. After compound treatment, cell plates were stored in a 37° C. incubator for 4 hours.
The cell plate was incubated at room temperature for 20 minutes. Well contents were aspirated and washed with 100 μL/well PBS 3 times. 50 μL/well of PBS (pH7.5) containing 0.5% w/v bovine serum albumen, 0.5% w/v Triton X-100 (Block/Permeabilzation Buffer) was added to each well. Samples were incubated for 20 minutes. Well contents were aspirated and washed 3 times with 100 μL/well of PBS. PBS was aspirated from the well and 50 μL per well of EoL-1 Block Buffer (PBS containing 10% Normal Goat Serum (Abcam #ab7481)) was added to each well. Plates were incubated at room temperature for 30 minutes. Block buffer was decanted from the wells.
25 μL per well of BRD4 antibody diluted in buffer was added and incubated overnight at 4° C. On day-2 samples were washed 3 times with 100 μL/well of PBS. […] Samples were incubated for 2 hours at room temperature. Samples were washed 3 times with 100 μL PBS.
as §3, with “Sinf” for “Sit”

The test system of assay [5] is MYC expression. As to the kind of experiment: Myc mRNA assay in MV-4-11 cells. The following applies: for Maximum Inhibition (%) (mean) of MYC expression: 4 hours, QuantiGene 2.0; for IC50: Homo sapiens, MV4-11, 4 hours, QuantiGene 2.0, read-out: Inhibition of MYC expression Average IC50. The format is cell-based. Here is the method:
Pharmacologic inhibition of MYC is achievable through targeting BET bromodomains through small molecule binder or degrader mechanisms.
Test compounds diluted in DMSO were transferred to the cell plates, keeping final DMSO concentration consistent at 0.1%, and incubated for 4 hours at 37° C. […] Luminescence was read using an EnVision plate reader (PerkinElmer) and IC50s generated in Genedata Screener using a 4-parameter non-linear regression fit.

Where [6] appears, read: 4 hours, immunofluorescence, read-out: Degradation of BRD4 Average EC50.
[7] abbreviates: read-out: Degradation of BRD4 Average EC50, 4 hours, immunofluorescence.

As a reminder, the IC50 is the concentration at which inhibition is half-maximal.

`Cc1sc2c(c1C)C(c1ccc(C#CCN)cc1)=N[C@H](CC(=O)OC(C)(C)C)c1nnc(C)n1-2` [Compound 1b, tert-butyl (R)-2-(4-(4-(3-aminoprop-1-yn-1-yl)phenyl)-2,3,9-trimethyl-6H-thieno[3,2-f][1,2,4]triazolo[4,3-a][1,4]diazepin-6-yl)acetate]: the IC50 is 0.199 µM in assay [1], 0.272 µM in assay [2] and 0.0675 µM in assay [5]. Also, the Dmax in assay [3] (4 hours) was -74.5%; in assay [4] (EOL1, 4 hours, complete loss = −100%, read-out: Sinf (maximum degradation, percent change in protein level)) it was -87%. Moreover, the DC50 was 0.0105 µM in assay [3] (setting [6]) and 0.009 µM in assay [4] (setting [6]). In assay [5], the “Maximum Inhibition (%) (mean) of MYC expression” value (shortened to “Maximum Inhibition (%) (mean)”) was 86.6%.
For the compound `CNCC#Cc1ccc(C2=N[C@@H](CC(=O)OC(C)(C)C)c3nnc(C)n3-c3sc(C)c(C)c32)cc1` [Compound 2a, tert-butyl (S)-2-(2,3,9-trimethyl-4-(4-(3-(methylamino)prop-1-yn-1-yl)phenyl)-6H-thieno[3,2-f][1,2,4]triazolo[4,3-a][1,4]diazepin-6-yl)acetate], the IC50 came out at 0.0144 µM in assay [1], 0.0171 µM in assay [2] and 0.0111 µM in assay [5]. Besides, in assay [3] (4 hours), the Dmax was -21.8%. For the same compound, the DC50 in assay [3] (setting [6]) and in assay [4] (setting [6]) was > 20 µM each time. Besides, the “Maximum Inhibition (%) (mean)” value in assay [5] was 77.9%.
As to `Cc1sc2c(c1C)C(c1ccc(C#CCN(C)C)cc1)=N[C@@H](CC(=O)OC(C)(C)C)c1nnc(C)n1-2` [Compound 3a, tert-butyl (S)-2-(4-(4-(3-(dimethylamino)prop-1-yn-1-yl)phenyl)-2,3,9-trimethyl-6H-thieno[3,2-f][1,2,4]triazolo[4,3-a][1,4]diazepin-6-yl)acetate], the results for the half-maximal inhibitory concentration (IC50) in assay [1], in assay [2] and in assay [5] were 0.0145 µM, 0.0207 µM and 0.0117 µM, respectively. Also, the Dmax in assay [3] (4 hours) is -41.9%. Besides, the DC50 in assay [3] (setting [6]) and in assay [4] (setting [6]) was > 20 µM throughout. Also, in assay [5], the “Maximum Inhibition (%) (mean)” value is reported as 78.7%.
For `CC(=O)NCC#Cc1ccc(C2=N[C@@H](CC(=O)OC(C)(C)C)c3nnc(C)n3-c3sc(C)c(C)c32)cc1` [Compound 10a, tert-butyl (S)-2-(4-(4-(3-acetamidoprop-1-yn-1-yl)phenyl)-2,3,9-trimethyl-6H-thieno[3,2-f][1,2,4]triazolo[4,3-a][1,4]diazepin-6-yl)acetate], the IC50 in assay [1] is 0.0066 µM; in assay [2], 0.0107 µM; in assay [5], 0.0071 µM. Also, the DC50 in assay [3] (setting [6]) and in assay [4] (setting [6]) was > 20 µM throughout. The “Maximum Inhibition (%) (mean)” value in assay [5] came to 79.3%.
For the compound `CCC#Cc1ccc(C2=N[C@@H](CC(=O)OC(C)(C)C)c3nnc(C)n3-c3sc(C)c(C)c32)cc1` [Compound 13a, tert-butyl (S)-2-(4-(4-(but-1-yn-1-yl)phenyl)-2,3,9-trimethyl-6H-thieno[3,2-f][1,2,4]triazolo[4,3-a][1,4]diazepin-6-yl)acetate], the IC50 was found to be 0.0234 µM in assay [1], 0.0287 µM in assay [2] and 0.163 µM in assay [5]. The DC50 in assay [3] (setting [7]) and in assay [4] (setting [7]) was > 20 µM throughout. Further, the “Maximum Inhibition (%) (mean)” value in assay [5] is on record as 71.6%.
Turning to `CC#Cc1ccc(C2=N[C@@H](CC(=O)OC(C)(C)C)c3nnc(C)n3-c3sc(C)c(C)c32)cc1` [Compound 14a, tert-butyl (S)-2-(2,3,9-trimethyl-4-(4-(prop-1-yn-1-yl)phenyl)-6H-thieno[3,2-f][1,2,4]triazolo[4,3-a][1,4]diazepin-6-yl)acetate], the IC50 in assay [1] was 0.0188 µM; in assay [2] it was 0.0203 µM; in assay [5] it was 0.0972 µM. Further, the DC50 in assay [3] (setting [7]) and in assay [4] (setting [7]) was > 20 µM in each case. Further, in assay [5], the “Maximum Inhibition (%) (mean)” value is recorded as 73.6%.
